Test results: PubChem BioAssay AID2060885 (Molecular Pharmacology Branch, DTP, NCI, 2025)

Test system: NCI-H23 complex spheroids with HUVEC/MSC, viability
Test: Anticancer human tumor NCI-H23 cell line growth inhibition [RAS];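 also: spheroids exposed to compound for 7 days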;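 as to viability, T/C: 100% = DMSO vehicle control viability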
Conditions: for IC50: curve of first compound; for viability, T/C: stronger effect = lower value
Outline: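 Agents were tested in combination matrices in half-log decrements from a top concentration at or near clinical Cmax (10 microM if undetermined). Targets were multi-cell spheroids of tumour lines plus HUVEC and MSC stromal cells.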

[1] = second compound 0.000949 µM, first compound 0.0316 µM
[2] = second compound 0.000949 µM, first compound 0.1 µM
[3] = second compound 0.000949 µM, first compound 0.316 µM
[4] = second compound 0.000949 µM, first compound 1 µM
[5] = second compound 0.000949 µM, first compound 3.16 µM
[6] = second compound 0.000949 µM, first compound 10 µM
[7] = second compound 0.003 µM, first compound 0.0316 µM
[8] = second compound 0.003 µM, first compound 0.1 µM
[9] = second compound 0.003 µM, first compound 0.316 µM
[10] = second compound 0.003 µM, first compound 1 µM
[11] = second compound 0.003 µM, first compound 3.16 µM
[12] = second compound 0.003 µM, first compound 10 µM
[13] = second compound 0.00949 µM, first compound 0.0316 µM
[14] = second compound 0.00949 µM, first compound 0.1 µM
[15] = second compound 0.00949 µM, first compound 0.316 µM
[16] = second compound 0.00949 µM, first compound 1 µM
[17] = second compound 0.00949 µM, first compound 3.16 µM
[18] = second compound 0.00949 µM, first compound 10 µM
[19] = second compound 0.03 µM, first compound 0.0316 µM
[20] = second compound 0.03 µM, first compound 0.1 µM
[21] = second compound 0.03 µM, first compound 0.316 µM
[22] = second compound 0.03 µM, first compound 1 µM
[23] = second compound 0.03 µM, first compound 3.16 µM
[24] = second compound 0.03 µM, first compound 10 µM
[25] = second compound 0.0949 µM, first compound 0.0316 µM
[26] = second compound 0.0949 µM, first compound 0.1 µM
[27] = second compound 0.0949 µM, first compound 0.316 µM
[28] = second compound 0.0949 µM, first compound 1 µM
[29] = second compound 0.0949 µM, first compound 3.16 µM
[30] = second compound 0.0949 µM, first compound 10 µM
[31] = second compound 0.3 µM, first compound 0.0316 µM
[32] = second compound 0.3 µM, first compound 0.1 µM
[33] = second compound 0.3 µM, first compound 0.316 µM
[34] = second compound 0.3 µM, first compound 1 µM
[35] = second compound 0.3 µM, first compound 3.16 µM
[36] = second compound 0.3 µM, first compound 10 µM

CC1(O)CCCC1n1c(=O)c(C(F)F)cc2cnc(NC3CCN(S(C)(=O)=O)CC3)nc21 (stereo unspecified) + CCn1c(-c2cccnc2C(C)OC)c2c3cc(ccc31)N1CCOC(CC(NC(=O)C(C(C)C)N(C)C(=O)C3(F)CCN(C(=O)C#CC(C)(C)N(C)C)CC3)C(=O)N3CCCC(N3)C(=O)OCC(C)(C)C2)C1
IC50 (second compound 0.000949 µM): < 0.0316 µM
IC50 (second compound 0.003 µM): < 0.0316 µM
IC50 (second compound 0.00949 µM): < 0.0316 µM
IC50 (second compound 0.03 µM): < 0.0316 µM
IC50 (second compound 0.0949 µM): < 0.0316 µM
IC50 (second compound 0.3 µM): < 0.0316 µM
viability, T/C [1]: 27.5%
viability, T/C [2]: 18.5%
viability, T/C [3]: 15%
viability, T/C [4]: 21.3%
viability, T/C [5]: 18.9%
viability, T/C [6]: 1.72%
viability, T/C [7]: 24.7%
viability, T/C [8]: 16.5%
viability, T/C [9]: 17.4%
viability, T/C [10]: 17.5%
viability, T/C [11]: 20.4%
viability, T/C [12]: 1.47%
viability, T/C [13]: 25.2%
viability, T/C [14]: 14.7%
viability, T/C [15]: 15.8%
viability, T/C [16]: 17.1%
viability, T/C [17]: 17.4%
viability, T/C [18]: 2.12%
viability, T/C [19]: 23%
viability, T/C [20]: 16.8%
viability, T/C [21]: 15.1%
viability, T/C [22]: 18.7%
viability, T/C [23]: 14.6%
viability, T/C [24]: 2.81%
viability, T/C [25]: 19.2%
viability, T/C [26]: 17.1%
viability, T/C [27]: 17.8%
viability, T/C [28]: 15.5%
viability, T/C [29]: 14.9%
viability, T/C [30]: 2.88%
viability, T/C [31]: 19.5%
viability, T/C [32]: 16.9%
viability, T/C [33]: 15.1%
viability, T/C [34]: 16.7%
viability, T/C [35]: 15.6%
viability, T/C [36]: 2.05%

CCC(CC)c1cc(NC2CCC(N)C2)n2nccc2n1 (stereo unspecified) + CCn1c(-c2cccnc2C(C)OC)c2c3cc(ccc31)N1CCOC(CC(NC(=O)C(C(C)C)N(C)C(=O)C3(F)CCN(C(=O)C#CC(C)(C)N(C)C)CC3)C(=O)N3CCCC(N3)C(=O)OCC(C)(C)C2)C1
IC50 (second compound 0.000949 µM): < 0.0316 µM
IC50 (second compound 0.003 µM): < 0.0316 µM
IC50 (second compound 0.00949 µM): < 0.0316 µM
IC50 (second compound 0.03 µM): < 0.0316 µM
IC50 (second compound 0.0949 µM): < 0.0316 µM
IC50 (second compound 0.3 µM): < 0.0316 µM
viability, T/C [1]: 32.7%
viability, T/C [2]: 33.7%
viability, T/C [3]: 24.4%
viability, T/C [4]: 28%
viability, T/C [5]: 3.12%
viability, T/C [6]: 0.38%
viability, T/C [7]: 27.1%
viability, T/C [8]: 25.2%
viability, T/C [9]: 28.3%
viability, T/C [10]: 25.9%
viability, T/C [11]: 1.84%
viability, T/C [12]: 0.31%
viability, T/C [13]: 27.7%
viability, T/C [14]: 25.1%
viability, T/C [15]: 31.2%
viability, T/C [16]: 25.8%
viability, T/C [17]: 1.37%
viability, T/C [18]: 0.37%
viability, T/C [19]: 25.3%
viability, T/C [20]: 28.2%
viability, T/C [21]: 28%
viability, T/C [22]: 25.3%
viability, T/C [23]: 0.57%
viability, T/C [24]: 0.34%
viability, T/C [25]: 25.7%
viability, T/C [26]: 25.3%
viability, T/C [27]: 28.1%
viability, T/C [28]: 24.1%
viability, T/C [29]: 0.71%
viability, T/C [30]: 0.48%
viability, T/C [31]: 22.5%
viability, T/C [32]: 24.1%
viability, T/C [33]: 27.1%
viability, T/C [34]: 20.8%
viability, T/C [35]: 0.58%
viability, T/C [36]: 0.67%

Cc1nc(N2CCC3(CC2)COC(C)C3N)c(CO)nc1Sc1ccnc(N)c1Cl (stereo unspecified) + CCn1c(-c2cccnc2C(C)OC)c2c3cc(ccc31)N1CCOC(CC(NC(=O)C(C(C)C)N(C)C(=O)C3(F)CCN(C(=O)C#CC(C)(C)N(C)C)CC3)C(=O)N3CCCC(N3)C(=O)OCC(C)(C)C2)C1
IC50 (second compound 0.000949 µM): < 0.0316 µM
IC50 (second compound 0.003 µM): < 0.0316 µM
IC50 (second compound 0.00949 µM): < 0.0316 µM
IC50 (second compound 0.03 µM): < 0.0316 µM
IC50 (second compound 0.0949 µM): < 0.0316 µM
IC50 (second compound 0.3 µM): < 0.0316 µM
viability, T/C [1]: 27.2%
viability, T/C [2]: 21%
viability, T/C [3]: 13.6%
viability, T/C [4]: 15.3%
viability, T/C [5]: 12.3%
viability, T/C [6]: 9.03%
viability, T/C [7]: 25.1%
viability, T/C [8]: 20.2%
viability, T/C [9]: 16.4%
viability, T/C [10]: 16.7%
viability, T/C [11]: 12.2%
viability, T/C [12]: 8.35%
viability, T/C [13]: 24%
viability, T/C [14]: 21.4%
viability, T/C [15]: 18%
viability, T/C [16]: 14.4%
viability, T/C [17]: 11.5%
viability, T/C [18]: 8.24%
viability, T/C [19]: 22.4%
viability, T/C [20]: 19.1%
viability, T/C [21]: 17.7%
viability, T/C [22]: 11.7%
viability, T/C [23]: 9.09%
viability, T/C [24]: 9.82%
viability, T/C [25]: 20.3%
viability, T/C [26]: 20.6%
viability, T/C [27]: 15.1%
viability, T/C [28]: 13.4%
viability, T/C [29]: 8.28%
viability, T/C [30]: 9.12%
viability, T/C [31]: 20%
viability, T/C [32]: 17.1%
viability, T/C [33]: 18.1%
viability, T/C [34]: 11.3%
viability, T/C [35]: 7.7%
viability, T/C [36]: 9.33%
